The supplement of paper PMC11061612

Experiments:
Assay in all cases: combination Emax (second highest fraction inhibited in the dose matrix, 72 h); higher = more inhibition; extreme values may be limits of the assay
[1] = system: BL-41 (Burkitt's Lymphoma)
Procedure, shortened: (§1)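 Cell lines in DMEM/F12 or RPMI with 10% FBS were plated in 1536-well plates, held 24 hours at 37°C, 5% CO2, then given two-drug dose matrices for 72 hours (DMSO typically 0.2%). Viability was read by CellTiter-Glo 2.0 luminescence and scaled as inhibition from 0 (vehicle wells) to 1 (blank wells). Combination Emax is the second-highest inhibition in the matrix; Bliss excess is observed combination effect minus expected EA + EB − EA·EB, EA and EB being single-agent effects.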

CHP-212 (Neuroblastoma) = system: CHP-212 (Neuroblastoma)
Procedure, shortened: as §1

[2] = system: COLO-678 (Colorectal Carcinoma)
Procedure, shortened: as §1

ES1 (Ewing's Sarcoma) = system: ES1 (Ewing's Sarcoma)
Procedure, shortened: as §1

ES8 (Ewing's Sarcoma) = system: ES8 (Ewing's Sarcoma)
Procedure, shortened: as §1

[3] = system: GR-ST (B-Lymphoblastic Leukemia)
Procedure, shortened: as §1

[4] = system: HDQ-P1 (Breast Carcinoma)
Procedure, shortened: as §1

[5] = system: K-562 (Chronic Myelogenous Leukemia)
Procedure, shortened: as §1

[6] = system: KARPAS-45 (T-Lymphoblastic Leukemia)
Procedure, shortened: as §1

[7] = system: KCL-22 (Chronic Myelogenous Leukemia)
Procedure, shortened: as §1

[8] = system: KM12 (Colorectal Carcinoma)
Procedure, shortened: as §1

LN-18 (Glioblastoma) = system: LN-18 (Glioblastoma)
Procedure, shortened: as §1

MEL-JUSO (Melanoma) = system: MEL-JUSO (Melanoma)
Procedure, shortened: as §1

[9] = system: NCI-H1792 (Lung Adenocarcinoma)
Procedure, shortened: as §1

[10] = system: NCI-H847 (Small Cell Lung Carcinoma)
Procedure, shortened: as §1

[11] = system: PANC-08-13 (Pancreatic Carcinoma)
Procedure, shortened: as §1

[12] = system: SR (Other Blood Carcinomas)
Procedure, shortened: as §1

[13] = system: SW1417 (Colorectal Carcinoma)
Procedure, shortened: as §1

U251 (Low Grade Glioma) = system: U251 (Low Grade Glioma)
Procedure, shortened: as §1

[14] = system: P12-ICHIKAWA (T-Lymphoblastic Leukemia)
Procedure, shortened: as §1

SMILES	combination Emax [1]	combination Emax (CHP-212 (Neuroblastoma))	combination Emax [2]	combination Emax (ES1 (Ewing's Sarcoma))	combination Emax (ES8 (Ewing's Sarcoma))	combination Emax [3]	combination Emax [4]	combination Emax [5]	combination Emax [6]	combination Emax [7]	combination Emax [8]	combination Emax (LN-18 (Glioblastoma))	combination Emax (MEL-JUSO (Melanoma))	combination Emax [9]	combination Emax [10]	combination Emax [11]	combination Emax [12]	combination Emax [13]	combination Emax (U251 (Low Grade Glioma))	combination Emax [14]
CN(C)CCCOc1ccc(-c2ccc3ncc4c(c3c2)n(C2CCOCC2)c(=O)n4C)cn1 [AZD0156] + C=CCn1c(=O)c2cnc(Nc3ccc(N4CCN(C)CC4)cc3)nc2n1-c1cccc(C(C)(C)O)n1 [AZD1775] (first compound max 1 µM, partner max 1 µM)	1	0.831	0.226	0.682	0.646	0.78	0.469	0.715	0.854	0.895	0.731	0.291	0.486	0.643	0.971	0.247	0.99	0.407	0.398	
CN(C)CCCOc1ccc(-c2ccc3ncc4c(c3c2)n(C2CCOCC2)c(=O)n4C)cn1 [AZD0156] + CCN(CCO)CCCOc1ccc2c(Nc3cc(CC(=O)Nc4cccc(F)c4)[nH]n3)ncnc2c1 [AZD2811] (first compound max 1 µM, 7x7, partner max 1 µM)	0.744	0.803	0.144	0.69	1	0.276	0.211	0.23	0.919	0.333	0.0745	0.33	0.16	0.147	0.949	0.0865	0.849	0.104	0.179	
CN(C)CCCOc1ccc(-c2ccc3ncc4c(c3c2)n(C2CCOCC2)c(=O)n4C)cn1 [AZD0156] + C[C@@H]1COCCN1C2=NC(=NC(=C2)C3(CC3)[S@](=N)(=O)C)C4=C5C=CNC5=NC=C4 [AZD6738] (first compound max 1 µM, 7x7, partner max 10 µM)	1	0.839	0.123	0.956	0.799	0.715	0.381	0.9	0.857	0.978	0.696	0.725	0.525	0.707	0.956	0.373	0.946	0.33	0.584	
C=CCn1c(=O)c2cnc(Nc3ccc(N4CCN(C)CC4)cc3)nc2n1-c1cccc(C(C)(C)O)n1 [AZD1775] + C[C@@H]1COCCN1C2=NC(=NC(=C2)C3(CC3)[S@](=N)(=O)C)C4=C5C=CNC5=NC=C4 [AZD6738] (first compound max 1 µM, partner max 10 µM)	1	0.823	0.199	0.948	0.905	0.78	0.76	0.934	1	1	0.852	0.736	0.496	0.866	1	0.373	1	0.655	0.773	
C=CCn1c(=O)c2cnc(Nc3ccc(N4CCN(C)CC4)cc3)nc2n1-c1cccc(C(C)(C)O)n1 [AZD1775] + O=C(c1cc(Cc2n[nH]c(=O)c3ccccc23)ccc1F)N1CCN(C(=O)C2CC2)CC1 [Olaparib] (first compound max 1 µM, partner max 10 µM)	1	0.831	0.205	0.838	0.829	0.806	0.517	0.845	0.847	0.882	0.748	0.217	0.401	0.707	1	0.329	0.995	0.564	0.442	
CCN(CCO)CCCOc1ccc2c(Nc3cc(CC(=O)Nc4cccc(F)c4)[nH]n3)ncnc2c1 [AZD2811] + C=CCn1c(=O)c2cnc(Nc3ccc(N4CCN(C)CC4)cc3)nc2n1-c1cccc(C(C)(C)O)n1 [AZD1775] (first compound max 1 µM, partner max 1 µM)	1	0.843	0.278	0.779	1	0.789	0.522	0.811	0.936	0.932	0.705	0.458	0.333	0.608	1	0.268	0.991	0.412	0.266	
CCN(CCO)CCCOc1ccc2c(Nc3cc(CC(=O)Nc4cccc(F)c4)[nH]n3)ncnc2c1 [AZD2811] + C[C@@H]1COCCN1C2=NC(=NC(=C2)C3(CC3)[S@](=N)(=O)C)C4=C5C=CNC5=NC=C4 [AZD6738] (first compound max 1 µM, 7x7, partner max 10 µM)	1	0.791	0.165	0.948	1	0.732	0.391	0.881	0.948	0.986	0.612	0.585	0.357	0.655	1	0.36	0.968	0.341	0.533	
CCN(CCO)CCCOc1ccc2c(Nc3cc(CC(=O)Nc4cccc(F)c4)[nH]n3)ncnc2c1 [AZD2811] + O=C(c1cc(Cc2n[nH]c(=O)c3ccccc23)ccc1F)N1CCN(C(=O)C2CC2)CC1 [Olaparib] (first compound max 1 µM, 7x7, partner max 10 µM)	0.603	0.771	0.153	0.855	0.997	0.448	0.264	0.366	0.882	0.417	0.176	0.287	0.243	0.175	0.956	0.166	0.875	0.109	0.273	
C[C@@H]1COCCN1c1cc(C2([S@](C)(=N)=O)CC2)nc(-c2ccnc3[nH]ccc23)n1 [AZD6738] + O=C(c1cc(Cc2n[nH]c(=O)c3ccccc23)ccc1F)N1CCN(C(=O)C2CC2)CC1 [Olaparib] (first compound max 10 µM, 7x7, partner max 10 µM)	1	0.795	0.159	0.99	0.895	0.803	0.512	0.811	0.832	0.909	0.615	0.877	0.418	0.707	0.978	0.313	0.97	0.38	0.661	
Cc1cc2ncnn2cc1Nc1ncc2c(n1)n(C1CCOCC1)c(=O)n2C [AZD7648] + C=CCn1c(=O)c2cnc(Nc3ccc(N4CCN(C)CC4)cc3)nc2n1-c1cccc(C(C)(C)O)n1 [AZD1775] (first compound max 10 µM, partner max 1 µM)	1	0.769	0.27	0.639	0.691	0.772	0.567	0.645	0.819	0.937	0.764	0.366	0.494	0.715	1	0.312	0.986	0.555	0.319	
Cc1cc2ncnn2cc1Nc1ncc2c(n1)n(C1CCOCC1)c(=O)n2C [AZD7648] + CCN(CCO)CCCOc1ccc2c(Nc3cc(CC(=O)Nc4cccc(F)c4)[nH]n3)ncnc2c1 [AZD2811] (first compound max 10 µM, 7x7, partner max 1 µM)	0.747	0.693	0.152	0.724	1	0.466	0.423	0.202	0.931	0.485	0.261	0.393	0.258	0.553	0.971	0.254	0.86	0.313	0.233	
Cc1cc2ncnn2cc1Nc1ncc2c(n1)n(C1CCOCC1)c(=O)n2C [AZD7648] + CN(C)CCCOc1ccc(-c2ccc3ncc4c(c3c2)n(C2CCOCC2)c(=O)n4C)cn1 [AZD0156] (first compound max 10 µM, 7x7, partner max 1 µM)	0.269	0.288	0.0911	0.478	0.408	0.489	0.403	0.2	0.234	0.332	0.241	0.17	0.169	0.469	0.663	0.223	0.377	0.326	0.196	
CCc1c2c(nc3ccc(O)cc13)-c1cc3c(c(=O)n1C2)COC(=O)[C@]3(O)CC [SN-38] + O=C(c1cc(Cc2n[nH]c(=O)c3ccccc23)ccc1F)N1CCN(C(=O)C2CC2)CC1 [Olaparib] (first compound max 0.3 µM, 7x7, partner max 10 µM)	1		0.396	1	0.989	0.74	0.702	0.672		0.887	0.681			0.575	1	0.297	0.982	0.694		
Cn1cnc2c(F)c(Nc3ccc(Br)cc3Cl)c(C(=O)NOCCO)cc21 [Selumetinib] + C[C@@H]1COCCN1C2=NC(=NC(=C2)C3(CC3)[S@](=N)(=O)C)C4=C5C=CNC5=NC=C4 [AZD6738] (first compound max 10 µM, 7x7, partner max 10 µM)	0.989	0.989	0.466	0.898	0.674	0.766	0.455	0.866	0.868	0.984	0.825	0.71	0.509	0.76		0.239	0.889	0.583	0.443	0.988
